Assay results as given in EPA's ToxValDB 9.5 (doi:10.2903/j.efsa.2006.78r).

How the values were obtained:
Apis mellifera = settings: acute; duration: 48 hours; oral; unspecified; mortality
Daphnia magna = settings: chronic/long-term; duration: 21 days
Cucumis sativus = settings: chronic/long-term; other
Rattus norvegicus = settings: oral, histopathology: nonneoplastic
Typhlodromus pyri = experiment: LR50; higher = less toxic; settings: not reported; mortality
[1] = acute, oral, unspecified, mortality

Compound `CCCOC(=O)NCCCN(C)C.Cl` [Propamocarb hydrochloride] has an LD50 (Apis mellifera) greater than 84 µg/piece, an LC50 (Tagia sp.; acute, duration: 14 days, mortality) greater than 660 mg/kg and an NOEC (Tagia sp.; chronic/long-term, duration: 56 days, reproduction) of 362 mg/kg. For the same compound, the LD50 (Bird; [1]) was greater than 1840 mg/kg-day, the NOEC (Bird; reproductive) was 105 mg/kg-day and the LC50 (Bird; short-term, oral, feed, mortality) was greater than 962 mg/kg-day. The NOEC (Daphnia magna) was 12.3 mg/L, the NOEC (Cucumis sativus) was 9180 g/ha and the LC50 (Lepomis macrochirus; acute, duration: 96 hours, mortality) was greater than 92 µg/mL. The NOEC (Lepomis macrochirus; chronic/long-term, duration: 32 days) was greater than 6.3 mg/L, the NOAEL (Rattus norvegicus; chronic, duration: 52 weeks, diet, F) was 29 mg/kg-day and the NOAEL (Rattus norvegicus; short-term, duration: 28 days, gavage) was 100 mg/kg-day. The LD50 [1] was greater than 1330 mg/kg-day, the LEC (chronic/long-term) was 104 mg/kg-day and the LR50 (Typhlodromus pyri) was greater than 360 g/ha.
